Measured values published in patent US20100196355A1, “Immunophilin Ligands and Methods for Modulating Immunophilin and Calcium Channel Activity” (Wyeth, priority 2007, published 2010).

What was measured:
cortical neurons = experiment: Neurite outgrowth in cortical neurons; format: cell-based, rat
Procedure: Cortical neurons were fixed using 2% paraformaldehyde for 5 min followed by 4% paraformaldehyde for 5 min. Cells were incubated in blocking solution (0.2% Triton-X+1.5% normal goat serum in PBS) followed by primary (anti-neuronal class III β-tubulin (TUJ1) (Covance Innovative Antibodies, Berkeley, Calif.) and secondary antibody (Alexa Fluor 488 goat anti-mouse) (Molecular Probes, Carlsbad, Calif.). Each step was performed at room temperature for 1 hr. Total neurite outgrowth for each condition was analyzed using the Neuronal Profiling Bioapplication on an ArrayScan HCS Reader (Cellomics, Pittsburgh, Pa.).
Briefly, cortical neuron cultures were prepared from embryonic day 15 (E15) rat embryos (Sprague-Dawley, Charles River Laboratories, Wilmington, Mass.). The embryos were collected, their brains were removed, and the cortices were dissected out in ice-cold phosphate-buffered saline (PBS) without Ca^2+ and Mg^2+. Dissected pieces of cortical tissue were pooled together and transferred to an enzymatic dissociation media containing 20 IU/ml papain in Earle's balanced salt solution (Worthington Biochemical, Freehold, N.J.) and incubated for 30 min at 37° C. After enzymatic dissociation, the papain solution was aspirated and the tissue mechanically triturated with a fire-polished Pasteur pipette in complete media [Neurobasal Medium with B-27 supplement (Gibco, Grand Island, N.Y.), 100 IU/ml penicillin, 100 μg/ml streptomycin, 3.3 μg/ml aphidicolin, 0.5 mM glutamate] containing 2,000 IU/ml DNase and 10-mg/ml ovomucoid protease inhibitor.

His6-tagged FKBP12 = His6-tagged FKBP12 (Homo sapiens, UniProt P62942); experiment: [3H]-FK506 binding on Ni-chelated FLASH plate
Procedure: Reactions were carried out in triplicate at 25° C. for 30 min. Kd were calculated using methods described by Carreras (Anal. Biochem. 298, 57-61 (2001)).

[1] = system: Ca2+ channel in F-11 cells; experiment: Whole-cell patch clamp recording of Ca2+ currents in F-11 cells; format: cell-based, rat and mouse hybrid
Procedure: The whole-cell configuration of the patch-clamp technique was used to record calcium currents from the cells at room temperature using an EPC-9 amplifier (HEKA, Instrutech Corp.) with the acquisition and analysis program Pulse-PulseFit from HEKA (Lambrecht, Germany). Electrodes were fabricated using a P-87 puller (Sutter Instrument). […] The standard bath recording solution is Ca^2+ and Mg^2+ free HBSS (pH 7.4) containing 10 mM HEPES, 10 mM dextrose, and 4 mM BaCl2. Currents were filtered at 3 kHz, and the inward Ca^2+ currents were recorded from cells held at −90 mV with 10 mV depolarizing steps from −80 mV to 60 mV for 50 ms.

[2] = system: rat cortical neuron cultures; experiment: Transcriptional profiling of cortical neuron cultures; format: cell-based; conditions: 10 μM
Procedure: Cortical neuron cultures were prepared from E16 rat embryos. After plating for 24 hrs, cultures were treated with 10 μM immunophilin ligands and the corresponding vehicle. After treatment for 4 hrs, 12 hrs, 24 hrs and 48 hrs, cells were lysed. Total RNA from each sample was extracted with the RNEASY® Mini Kit (QIAGEN®). Double stranded cDNA was synthesized from 2 μg of each RNA sample using the […]® System (INVITROGEN®), purified, transcribed in vitro to prepare biotinylated cRNA using T7 RNA polymerase in the presence of biotin labeled UTP and CTP. The fragmented cRNAs were hybridized to a Rat Genome 230 2.0 […]® (AFFYMETRIX®, Santa Clara, Calif.) as recommended by the manufacturer. Hybridized arrays were stained according to manufacture protocols on a Fluidics Station 450 and subsequently scanned on an AFFYMETRIX® scanner 3000. The raw data was generated using AFFYMETRIX® MAS 5.0 Software. Transcriptional profiling data were analyzed in Ingenuity.

Chain of His6-tagged FKBP12 (P62942 whole entry): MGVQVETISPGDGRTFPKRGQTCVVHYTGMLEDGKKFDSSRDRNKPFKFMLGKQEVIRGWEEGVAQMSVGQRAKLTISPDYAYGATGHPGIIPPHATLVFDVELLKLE

## CO[C@H]1C[C@@H]2CC[C@@H](C)[C@@](O)(O2)C(=O)C(=O)N2CCCCC2C(=O)O[C@H]([C@H](C)C[C@@H]2CC[C@@H](O)[C@H](OC)C2)CC(=O)[C@H](C)/C=C(\C)[C@@H](O)[C@@H](OC)C(=O)[C@H](C)C[C@H](C)C2C=C[C@H](/C=C/1C)ON2c1ccccc1 (stereo partly drawn) [Rapamycin analogue I, 9,27-dihydroxy-3-{2-[4-hydroxy-3-methoxycyclohexyl]-1-methylethyl}-10,21-dimethoxy-6,8,12,14,20,26-hexamethyl-37-phenyl-4,9,10,12,13,14,15,18,21,22,23,24,25,26,27,32,33,34,34a-nonadecahydro-3H-23,27-epoxy-18,15-(epoxyimino)pyrido[2,1-c][1,4]oxazacyclohentriacontine-1,5,11,28,29(6H, 31H)-pentone]
Cortical neurons
  neurite outgrowth in cortical neurons: promote neurite outgrowth
His6-tagged FKBP12
  Kd: 4.7 ± 0.4 nM
[1]; 5 μM in the bath for 2 hrs
  Ca2+ current density: 3.2+/−0.3 pA/pF
  decrease of Ca2+ current density vs vehicle: 49%
[1]; 10 min application
  whole-cell Ca2+ currents, short bath application: not affected
[1]; internal application 10 μM, within 10 min, cells responding to BAY-K5552 (L-type)
  reduction of Ca2+ current: 46+/−1.8%
[1]; internal application, cells responding to ωCTX MVIIA (N-type)
  reduction of Ca2+ current: No significant current reduction
[2]; ACTA1
  fold change vs DMSO, ACTA1: −1.53 fold
[2]; ACTA2
  fold change vs DMSO, ACTA2: 1.41 fold
[2]; AKAP5
  fold change vs DMSO, AKAP5: −2.56 fold
[2]; ASPH
  fold change vs DMSO, ASPH: −3.19 fold
[2]; ATP2A2
  fold change vs DMSO, ATP2A2: 1.85 fold
[2]; ATP2B1
  fold change vs DMSO, ATP2B1: 1.53 fold
[2]; ATP2B3
  fold change vs DMSO, ATP2B3: −1.54 fold
[2]; ATP2C1
  fold change vs DMSO, ATP2C1: −1.38 fold
[2]; CABIN1
  fold change vs DMSO, CABIN1: 1.33 fold
[2]; CACNA1B
  fold change vs DMSO, CACNA1B: −1.77 fold
[2]; CACNA1C
  fold change vs DMSO, CACNA1C: 1.48 fold
[2]; CACNA1D
  fold change vs DMSO, CACNA1D: −1.72 fold
[2]; CACNA2D1
  fold change vs DMSO, CACNA2D1: 3.47 fold
[2]; CACNB1
  fold change vs DMSO, CACNB1: −1.32 fold
[2]; CACNG2
  fold change vs DMSO, CACNG2: −1.8 fold
[2]; CACNG3
  fold change vs DMSO, CACNG3: −3.73 fold
[2]; CALM1
  fold change vs DMSO, CALM1: −1.74 fold
[2]; CALM2
  fold change vs DMSO, CALM2: −1.22 fold
[2]; CALM3
  fold change vs DMSO, CALM3: −1.34 fold
[2]; CALR
  fold change vs DMSO, CALR: 1.18 fold
[2]; CAMK1
  fold change vs DMSO, CAMK1: −1.6 fold
[2]; CAMK1G
  fold change vs DMSO, CAMK1G: −2.47 fold
[2]; CAMK2A
  fold change vs DMSO, CAMK2A: −2.03 fold
[2]; CAMK2B
  fold change vs DMSO, CAMK2B: −1.82 fold
[2]; CAMK2D
  fold change vs DMSO, CAMK2D: −1.45 fold
[2]; CAMK4
  fold change vs DMSO, CAMK4: −1.42 fold
[2]; CHP
  fold change vs DMSO, CHP: 1.65 fold
[2]; CREBBP
  fold change vs DMSO, CREBBP: 4.14 fold
[2]; CYP27B1
  fold change vs DMSO, CYP27B1: −1.27 fold
[2]; DHCR7
  fold change vs DMSO, DHCR7: 1.84 fold
[2]; DSCR1
  fold change vs DMSO, DSCR1: −1.93 fold
[2]; DSCR1L1
  fold change vs DMSO, DSCR1L1: −4.44 fold
[2]; EBP
  fold change vs DMSO, EBP: 1.45 fold
[2]; FDFT1
  fold change vs DMSO, FDFT1: 1.94 fold
[2]; FDPS
  fold change vs DMSO, FDPS: 2.34 fold
[2]; GRIA1
  fold change vs DMSO, GRIA1: −2.78 fold
[2]; GRIA2
  fold change vs DMSO, GRIA2: 2.74 fold
[2]; GRIN1
  fold change vs DMSO, GRIN1: −2.41 fold
[2]; GRIN2B
  fold change vs DMSO, GRIN2B: −1.94 fold
[2]; GRIN3A
  fold change vs DMSO, GRIN3A: −1.84 fold
[2]; GRINA
  fold change vs DMSO, GRINA: −1.21 fold
[2]; HDAC5
  fold change vs DMSO, HDAC5: 1.78 fold
[2]; HDAC6
  fold change vs DMSO, HDAC6: −1.18 fold
[2]; HDAC7A
  fold change vs DMSO, HDAC7A: 1.24 fold
[2]; HMGCR
  fold change vs DMSO, HMGCR: 2.24 fold
[2]; HTR3A
  fold change vs DMSO, HTR3A: −1.57 fold
[2]; IDI1
  fold change vs DMSO, IDI1: 3.24 fold
[2]; ITPR3
  fold change vs DMSO, ITPR3: −1.85 fold
[2]; LSS
  fold change vs DMSO, LSS: 13.3 fold
[2]; MAPK1
  fold change vs DMSO, MAPK1: 1.29 fold
[2]; MAPK3
  fold change vs DMSO, MAPK3: −1.31 fold
[2]; MVD
  fold change vs DMSO, MVD: 1.94 fold
[2]; MVK
  fold change vs DMSO, MVK: 1.6 fold
[2]; MYH1
  fold change vs DMSO, MYH1: −2.18 fold
[2]; MYH6
  fold change vs DMSO, MYH6: −7.18 fold
[2]; MYH7
  fold change vs DMSO, MYH7: −6.11 fold
[2]; MYL6B
  fold change vs DMSO, MYL6B: −1.69 fold
[2]; NQO1
  fold change vs DMSO, NQO1: 1.8 fold
[2]; PMVK
  fold change vs DMSO, PMVK: 1.33 fold
[2]; PPP3CB
  fold change vs DMSO, PPP3CB: −1.3 fold
[2]; PPP3CC
  fold change vs DMSO, PPP3CC: −1.18 fold
[2]; PPP3R1
  fold change vs DMSO, PPP3R1: −1.49 fold
[2]; PRKAG1
  fold change vs DMSO, PRKAG1: −1.21 fold
[2]; PRKAR1A
  fold change vs DMSO, PRKAR1A: 1.08 fold
[2]; PRKAR1B
  fold change vs DMSO, PRKAR1B: −3.36 fold
[2]; PRKAR2A
  fold change vs DMSO, PRKAR2A: −1.56 fold
[2]; PRKAR2B
  fold change vs DMSO, PRKAR2B: −1.56 fold
[2]; RAP1B
  fold change vs DMSO, RAP1B: −1.29 fold
[2]; SC5DL
  fold change vs DMSO, SC5DL: 2.01 fold
[2]; SQLE
  fold change vs DMSO, SQLE: 1.92 fold
[2]; TPM1
  fold change vs DMSO, TPM1: −2.55 fold
[2]; TPM3
  fold change vs DMSO, TPM3: −2.04 fold
[2]; TRPC1
  fold change vs DMSO, TRPC1: −1.21 fold
[2]; TRPC3
  fold change vs DMSO, TRPC3: −2.4 fold
[2]; TRPC4
  fold change vs DMSO, TRPC4: −4.56 fold
[2]; TRPV6
  fold change vs DMSO, TRPV6: 1.65 fold
[2]; plasminogen activator (PLAU)
  fold change, PLAU: −40 fold
